Measurements from BigSolDB 2.1.

Cc1nnc(C(C)C)n1[C@@H]1C[C@H]2CC[C@@H](C1)N2CC[C@H](NC(=O)C1CCC(F)(F)CC1)c1ccccc1
solubility (mole fraction)
Details | 278.15 K | 283.15 K | 288.15 K | 293.15 K | 298.15 K | 303.15 K | 308.15 K | 313.15 K | 318.15 K | 323.15 K
in DMF | 3.43e-05 | 5.31e-05 | 8.04e-05 | 0.000117 | 0.000181 | 0.000256 | 0.000364 | 0.000535 | 0.000744 | 0.00105
in DMSO | – | – | – | 5.92e-05 | 8.77e-05 | 0.000133 | 0.000189 | 0.000273 | 0.00038 | 0.000539
in ethanol | 0.000264 | 0.00038 | 0.0005 | 0.000715 | 0.00099 | 0.00142 | 0.00196 | 0.00273 | 0.0036 | 0.00458
in n-propanol | 0.00022 | 0.000327 | 0.000454 | 0.000645 | 0.000911 | 0.00126 | 0.00167 | 0.00222 | 0.00296 | 0.00395
in water | 5.73e-06 | 8.2e-06 | 1.15e-05 | 1.7e-05 | 2.47e-05 | 3.5e-05 | 5e-05 | 7.13e-05 | 9.89e-05 | 0.000137
